{"source": "patent US20030166673A1", "about": "“Medicines for the prevention and treatment of neurodegenerative diseases” (priority 2001, published 2003)", "tested_on": "vacuolized neurons in the PC/RS cortex (MK-801-induced neuronopathy)", "experiment": "Inhibitory effect on MK-801-induced neurodegeneration (number of vacuolized neurons)", "assay_type": "in vivo, mice (Std-ddY male)", "method": "The pharmacological test was carried out according to the method of D. F. Wozniak, et al. [Brain Research, Vol. 707, pp 165-178 (1996)].\nThe cerebrum was cut transversely from the anterior termination at approximately 4 mm to the posterior termination, and then embedded in cold polymerized resin (Technovit7100, manufactured by Kulzer in Germany). The slices containing the PC/RS cortex were obtained at four Anterior-Posterior levels at intervals of 300 μm from the exposed section of the block, and at each level two slices (3 μm in thickness) were consecutively obtained. The histological change (on Hematoxylin and eosin stain specimen) and the number of vacuolized neurons (on Nissl stain specimen) were observed by a light microscope for each 4 slices, respectively.", "key": {"[1]": {"conditions": "individual mouse, Compound A 1 mg/kg p.o. 30 min before MK-801 1 mg/kg s.c., 5 h after MK-801, PC/RS cortex"}}, "note": "Where “and” joins values, the source holds several entries; their conditions need not be identical. Equal entries are not always repeated.", "data": [{"compound": "COc1cccc(-c2nccc3[nH]c(=O)c(-c4noc(C)n4)cc23)c1", "note": "[Compound A, 3-(5-Methyl-1,2,4-oxadiazol-3-yl)-5-(3-methoxyphenyl)-1,6-naphthyridin-2(1H)-one]", "values": [{"measurement": "Vacuolization, Mean(/slice) Group", "setting": "group mean of three mice, Compound A 1 mg/kg p.o. + MK-801 1 mg/kg s.c., 5 h", "result": "4.3 /slice"}, {"measurement": "Vacuolization, Slice No. 1", "setting": "[1]", "result": "0 (2×) and 20"}, {"measurement": "Vacuolization, Slice No. 2", "setting": "[1]", "result": "0 (2×) and 12"}, {"measurement": "Vacuolization, Slice No. 3", "setting": "[1]", "result": "0 and 10 and 2"}, {"measurement": "Vacuolization, Slice No. 4", "setting": "[1]", "result": "0 and 5 and 2"}, {"measurement": "Vacuolization, Mean(/slice) Individual", "setting": "mean of 4 slices per mouse, Compound A 1 mg/kg p.o. + MK-801 1 mg/kg s.c., 5 h", "result": "0.0 /slice and 11.8 /slice and 1.0 /slice"}, {"measurement": "retardation or inhibition of neurodegeneration in the PC/RS cortex induced by MK-801 (in words)", "setting": "mice, Compound A 1 mg/kg p.o. before MK-801 1 mg/kg s.c.", "result": "potent retardation or inhibition of neurodegeneration"}]}]}
